Experimental data reported in the supplement of paper PMC10307832.

Key:
Assay in all cases: relative viability (nuclei count vs DMSO), 5 days (fraction); higher = more cells survive
Metformin + Alpelisib = compound: CN(C)C(=N)NC(=N)N [Metformin] + Cc1nc(NC(=O)N2CCC[C@H]2C(N)=O)sc1-c1ccnc(C(C)(C)C(F)(F)F)c1 [Alpelisib] (partner 2 µM)
Method in brief: (§1)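 Medians of duplicate plates are given as relative viability. That measure is the nuclei count in treated wells divided by the count in vehicle wells. Counts were taken on 4× images of lung cancer cell lines in 1536-well plates, 5 days after pin-tool dosing the day after seeding with one drug alone or a fixed anchor-drug dose plus five library-drug doses (not always all listed) in √10 steps.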

Apatinib + AZD7762 = compound: N#CC1(c2ccc(NC(=O)c3cccnc3NCc3ccncc3)cc2)CCCC1 [Apatinib] + NC(=O)Nc1cc(-c2cccc(F)c2)sc1C(=O)N[C@H]1CCCNC1 [AZD7762] (partner 0.2 µM)
Method in brief: as §1

Apatinib + Bortezomib = compound: N#CC1(c2ccc(NC(=O)c3cccnc3NCc3ccncc3)cc2)CCCC1 [Apatinib] + CC(C)C[C@H](NC(=O)[C@H](Cc1ccccc1)NC(=O)c1cnccn1)B(O)O [Bortezomib] (partner 0.002 µM)
Method in brief: as §1

Apatinib + Palbociclib = compound: N#CC1(c2ccc(NC(=O)c3cccnc3NCc3ccncc3)cc2)CCCC1 [Apatinib] + CC(=O)c1c(C)c2cnc(Nc3ccc(N4CCNCC4)cn3)nc2n(C2CCCC2)c1=O [Palbociclib] (partner 0.5 µM)
Method in brief: as §1

| Cell Line | relative viability (Metformin + Alpelisib; first compound 10 µM) | relative viability (Metformin + Alpelisib; first compound 31.62 µM) | relative viability (Metformin + Alpelisib; first compound 100 µM) | relative viability (Metformin + Alpelisib; first compound 316.23 µM) | relative viability (Metformin + Alpelisib; first compound 1000 µM) | relative viability (Apatinib + AZD7762; first compound 0.08 µM) | relative viability (Apatinib + AZD7762; first compound 0.253 µM) | relative viability (Apatinib + AZD7762; first compound 0.8 µM) | relative viability (Apatinib + AZD7762; first compound 2.53 µM) | relative viability (Apatinib + AZD7762; first compound 8 µM) | relative viability (Apatinib + Bortezomib; first compound 0.08 µM) | relative viability (Apatinib + Bortezomib; first compound 0.253 µM) | relative viability (Apatinib + Bortezomib; first compound 0.8 µM) | relative viability (Apatinib + Bortezomib; first compound 2.53 µM) | relative viability (Apatinib + Bortezomib; first compound 8 µM) | relative viability (Apatinib + Palbociclib; first compound 0.08 µM) | relative viability (Apatinib + Palbociclib; first compound 0.253 µM) | relative viability (Apatinib + Palbociclib; first compound 0.8 µM) | relative viability (Apatinib + Palbociclib; first compound 2.53 µM) | relative viability (Apatinib + Palbociclib; first compound 8 µM) |
| --- | --- | --- | --- | --- | --- | --- | --- | --- | --- | --- | --- | --- | --- | --- | --- | --- | --- | --- | --- | --- |
| BEN | 1.16 | 1.47 | 1.43 | 1.03 | 1.24 | 0.529 | 0.67 | 0.694 | 0.449 | 0.621 | 0.688 | 0.868 | 0.876 | 0.458 | 0.871 | 0.521 | 0.453 | 0.466 | 0.478 | 0.407 |
| EMC-BAC-2 | 0.612 | 0.704 | 0.675 | 0.639 | 0.674 | 1.1 | 1.07 | 1.06 | 0.91 | 0.998 | 1.08 | 0.987 | 1.07 | 0.843 | 0.918 | 0.518 | 0.536 | 0.506 | 0.449 | 0.412 |
| NCI-H1355 | 0.746 | 0.787 | 0.853 | 0.857 | 0.842 | 0.699 | 0.812 | 0.593 | 0.447 | 0.457 | 1.2 | 1.16 | 1.16 | 1.14 | 1.08 | 0.379 | 0.394 | 0.367 | 0.378 | 0.366 |
| A-427 | 1.07 | 1.14 | 1.02 | 1.05 | 1.03 | 0.71 | 0.761 | 0.665 | 0.572 | 0.527 | 1.08 | 0.955 | 1.01 | 0.886 | 0.945 | 0.52 | 0.534 | 0.507 | 0.518 | 0.453 |
| 201T | – | 0.987 | 0.989 | 0.955 | 0.985 | 0.691 | 0.701 | 0.565 | 0.5 | 0.471 | 1.07 | 1.07 | 1.1 | 1.11 | 1.08 | 0.366 | 0.362 | 0.354 | 0.381 | 0.292 |
| HARA | 0.915 | 0.902 | 1.06 | 0.89 | 0.964 | 0.344 | 0.38 | 0.184 | – | 0.128 | 1.14 | 1.07 | 1.14 | 0.992 | 1.18 | 0.291 | 0.262 | 0.303 | 0.271 | 0.272 |
| NCI-H3122 | 0.524 | 0.598 | 0.649 | 0.625 | 0.668 | 0.983 | 0.988 | 1.02 | 0.946 | 0.933 | 1.04 | 1.05 | 1.05 | 1.04 | 0.958 | 0.186 | 0.231 | 0.191 | 0.23 | 0.228 |
| NCI-H1651 | 1.21 | 1.13 | 1.14 | 1.08 | 1.15 | 0.325 | 0.514 | 0.44 | 0.322 | 0.324 | 0.799 | 0.955 | 0.922 | 0.912 | 0.861 | 0.516 | 0.522 | 0.489 | 0.514 | 0.459 |
